Assay results published in PubChem BioAssay AID248 (DTP/NCI, 2004).
Where “and” joins values, the source holds several entries; their conditions need not be identical. Equal values may be shown once. Toxic doses and inconclusive results are not listed. Rule as the data show it: active = T/C of 150% or more; inactive = T/C below 125%.

Tested on: L1210 leukemia ip in BDF1 mice, survival T/C
Assay: NCI In Vivo Anticancer Drug Screen. Data for tumor model L1210 Leukemia (intraperitoneal) in B6D2F1 (BDF1) mice
Settings: higher = longer survival
How it was run: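 Antitumor effect is assessed in tumor-bearing animals. Survival in the compound arm is compared with a vehicle-dosed control arm and expressed as their quotient.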

[1] = endpoint: mean survival time, dose: 100.0 mg/kg/injection, schedule: Q01DX001 (ip), vehicle: carboxymethylcellulose (CMC)
[2] = endpoint: mean survival time, dose: 200.0 mg/kg/injection, schedule: Q01DX001 (ip), vehicle: carboxymethylcellulose (CMC)
[3] = endpoint: mean survival time, dose: 400.0 mg/kg/injection, schedule: Q01DX001 (ip), vehicle: carboxymethylcellulose (CMC)
[4] = endpoint: mean survival time, dose: 100.0 mg/kg/injection, schedule: Q04DX003 (ip), vehicle: saline with Tween-80
[5] = endpoint: mean survival time, dose: 200.0 mg/kg/injection, schedule: Q04DX003 (ip), vehicle: saline with Tween-80
[6] = endpoint: mean survival time, dose: 400.0 mg/kg/injection, schedule: Q04DX003 (ip), vehicle: saline with Tween-80

Measured: T/C

CC(=O)OC1CC2(O)C3CCC4CC(O)CCC4(C)C3CCC2(C)C1c1ccc(=O)oc1 (centres undefined)
inactive: endpoint: mean survival time, dose: 100.0 mg/kg/injection, schedule: Q01DX001 (sc), vehicle: steriod suspending solution 107 % of control | endpoint: mean survival time, dose: 200.0 mg/kg/injection, schedule: Q01DX001 (sc), vehicle: steriod suspending solution 101 % of control | endpoint: mean survival time, dose: 400.0 mg/kg/injection, schedule: Q01DX001 (sc), vehicle: steriod suspending solution 107 % of control

Oc1ccccc1C=Nc1ccccc1O.[Zn+2]
inactive: endpoint: mean survival time, dose: 100.0 mg/kg/injection, schedule: Q01DX001 (ip), vehicle: other 94 % of control | endpoint: mean survival time, dose: 200.0 mg/kg/injection, schedule: Q01DX001 (ip), vehicle: other 91 % of control | endpoint: mean survival time, dose: 400.0 mg/kg/injection, schedule: Q01DX001 (ip), vehicle: other 91 % of control

CC(Nc1ccccc1)(C(N)=O)c1ccccc1 (centres undefined)
inactive: endpoint: mean survival time, dose: 100.0 mg/kg/injection, schedule: Q01DX001 (ip), vehicle: saline sonified 96 % of control | endpoint: mean survival time, dose: 200.0 mg/kg/injection, schedule: Q01DX001 (ip), vehicle: saline sonified 100 % of control | endpoint: mean survival time, dose: 400.0 mg/kg/injection, schedule: Q01DX001 (ip), vehicle: saline sonified 97 % of control

O=C(N=Nc1c(O)[nH]c2ccccc12)c1ccccc1[N+](=O)[O-]
inactive: [1] 87 % of control | [2] 90 % of control | [3] 96 % of control

CC(=O)Nc1ccc(Cl)cc1C(=O)c1ccccc1
inactive: endpoint: mean survival time, dose: 100.0 mg/kg/injection, schedule: Q04DX002 (ip), vehicle: Klucel (hydroxypropylcellulose) (HPC) 96 % of control | endpoint: mean survival time, dose: 200.0 mg/kg/injection, schedule: Q04DX002 (ip), vehicle: Klucel (hydroxypropylcellulose) (HPC) 108 % of control | endpoint: mean survival time, dose: 400.0 mg/kg/injection, schedule: Q04DX002 (ip), vehicle: Klucel (hydroxypropylcellulose) (HPC) 96 % of control

CCN(CC)Cc1cc(Nc2c3ccccc3nc3cc(Cl)ccc23)ccc1O
inactive: endpoint: mean survival time, dose: 12.5 mg/kg/injection, schedule: Q01DX009 (ip), vehicle: saline 101 % of control | endpoint: mean survival time, dose: 25.0 mg/kg/injection, schedule: Q01DX009 (ip), vehicle: saline 98 % of control | endpoint: mean survival time, dose: 30.0 mg/kg/injection, schedule: Q01DX Z (ip), vehicle: methylcellulose (MC) 113 % of control | endpoint: mean survival time, dose: 30.0 mg/kg/injection, schedule: Q01DX Z (ip), vehicle: saline 101 % of control | endpoint: mean survival time, dose: 45.0 mg/kg/injection, schedule: Q01DX Z (ip), vehicle: methylcellulose (MC) 100 % of control | endpoint: mean survival time, dose: 45.0 mg/kg/injection, schedule: Q01DX Z (ip), vehicle: saline 109 % of control | endpoint: mean survival time, dose: 50.0 mg/kg/injection, schedule: Q01DX001 (ip), vehicle: carboxymethylcellulose (CMC) 102 % of control | endpoint: mean survival time, dose: 50.0 mg/kg/injection, schedule: Q01DX009 (ip), vehicle: saline 103 % of control | endpoint: mean survival time, dose: 67.0 mg/kg/injection, schedule: Q01DX Z (ip), vehicle: methylcellulose (MC) 101 % of control | endpoint: mean survival time, dose: 67.0 mg/kg/injection, schedule: Q01DX Z (ip), vehicle: saline 107 % of control | [1] 102 % of control | endpoint: mean survival time, dose: 100.0 mg/kg/injection, schedule: Q01DX Z (ip), vehicle: methylcellulose (MC) 103 % of control | endpoint: mean survival time, dose: 100.0 mg/kg/injection, schedule: Q04DX003 (ip), vehicle: saline 91 % of control | [2] 105 % of control | [3] 102 % of control

O=C1NC(=O)C2(CCCCCC2)N1
inactive: endpoint: mean survival time, dose: 50.0 mg/kg/injection, schedule: Q01DX009 (ip), vehicle: saline with Tween-80 101 % of control | endpoint: mean survival time, dose: 50.0 mg/kg/injection, schedule: Q04DX003 (ip), vehicle: saline with Tween-80 105 % of control | endpoint: mean survival time, dose: 100.0 mg/kg/injection, schedule: Q01DX009 (ip), vehicle: saline sonified 90 % of control | endpoint: mean survival time, dose: 100.0 mg/kg/injection, schedule: Q01DX009 (ip), vehicle: saline with Tween-80 101 % of control | [4] 99 % of control and 111 % of control | endpoint: mean survival time, dose: 200.0 mg/kg/injection, schedule: Q01DX009 (ip), vehicle: saline sonified 96 % of control | endpoint: mean survival time, dose: 200.0 mg/kg/injection, schedule: Q01DX009 (ip), vehicle: saline with Tween-80 98 % of control | [5] 100 % of control and 110 % of control | endpoint: mean survival time, dose: 400.0 mg/kg/injection, schedule: Q01DX009 (ip), vehicle: saline sonified 98 % of control | [6] 106 % of control

NNC(=O)C1C2C=CC(C2)C1C(=O)NN (centres undefined)
inactive: [4] 103 % of control | [5] 91 % of control | [6] 100 % of control

CC(=O)Nc1cc(Cl)c(Cl)cc1Cl
inactive: [4] 103 % of control | [5] 102 % of control | [6] 96 % of control

COc1cc([C@@H]2c3cc4c(c(O)c3C[C@H]3COC(=O)[C@@H]32)OCO4)cc(OC)c1OC
inactive: endpoint: mean survival time, dose: 0.06 mg/kg/injection, schedule: Q01DX Z (ip), vehicle: saline 100 % of control | endpoint: mean survival time, dose: 0.12 mg/kg/injection, schedule: Q01DX Z (ip), vehicle: saline 103 % of control | endpoint: mean survival time, dose: 0.25 mg/kg/injection, schedule: Q01DX Z (ip), vehicle: saline 113 % of control | endpoint: mean survival time, dose: 0.5 mg/kg/injection, schedule: Q01DX Z (ip), vehicle: saline 116 % of control | endpoint: mean survival time, dose: 1.0 mg/kg/injection, schedule: Q01DX Z (ip), vehicle: saline 99 % of control | endpoint: mean survival time, dose: 1.5 mg/kg/injection, schedule: Q01DX Z (ip), vehicle: saline 115 % of control | endpoint: mean survival time, dose: 2.25 mg/kg/injection, schedule: Q01DX Z (ip), vehicle: saline 108 % of control | endpoint: mean survival time, dose: 28.0 mg/kg/injection, schedule: Q01DX001 (ip), vehicle: saline 102 % of control | endpoint: mean survival time, dose: 45.0 mg/kg/injection, schedule: Q01DX001 (ip), vehicle: saline 122 % of control | endpoint: mean survival time, dose: 50.0 mg/kg/injection, schedule: Q01DX001 (ip), vehicle: saline 101 % of control | endpoint: mean survival time, dose: 65.0 mg/kg/injection, schedule: Q01DX001 (ip), vehicle: saline 111 % of control | endpoint: mean survival time, dose: 100.0 mg/kg/injection, schedule: Q01DX001 (ip), vehicle: saline 112 % of control | endpoint: mean survival time, dose: 200.0 mg/kg/injection, schedule: Q01DX001 (ip), vehicle: saline 112 % of control | endpoint: mean survival time, dose: 400.0 mg/kg/injection, schedule: Q01DX001 (ip), vehicle: saline 117 % of control | endpoint: median survival time, dose: 0.25 mg/kg/injection, schedule: Q01DX009 (ip), vehicle: Klucel (hydroxypropylcellulose) (HPC) 100 % of control | endpoint: median survival time, dose: 0.5 mg/kg/injection, schedule: Q01DX009 (ip), vehicle: Klucel (hydroxypropylcellulose) (HPC) 100 % of control | endpoint: median survival time, dose: 1.0 mg/kg/injection, schedule: Q01DX009 (ip), vehicle: Klucel (hydroxypropylcellulose) (HPC) 100 % of control | endpoint: median survival time, dose: 2.0 mg/kg/injection, schedule: Q01DX009 (ip), vehicle: Klucel (hydroxypropylcellulose) (HPC) 100 % of control
